Test system: moderate-to-severe chronic spontaneous urticaria (CSU)
Assay: Phase 2 CSU study: urticaria activity score over 7 days (UAS7)
Type: in vivo, human
Set-up: key to UAS7 Median / UAS7 Change from baseline Median / UAS7 change from baseline, Q1 / UAS7 change from baseline, Q3 / UAS7 change from baseline, Max / UAS7 Change from baseline LS Mean (SE): UAS7 points; daily UAS score ranges 0–6 points/day, over 7 days
Conditions: for UAS7 Post-baseline Mean (SD) / UAS7 % Change difference for rilzabrutinib vs. placebo LS Mean (95% CI) / UAS7 % Change from baseline LS Mean (SE) / UAS7 Change difference for rilzabrutinib vs. placebo LS Mean (95% CI) / UAS7 Change from baseline LS Mean (SE): Omalizumab-Naïve Population; for Change from Baseline in UAS7 at Week 12: LS Mean (SE) / Change from Baseline in UAS7 at Week 12: LS Mean Diff vs. placebo (95% CI) / Change from Baseline in UAS7 at Week 12: Mean (SD): Omalizumab-Naïve
Description: The study comprises a 12 week, randomized, double-blind, placebo-controlled, multi-center, dose-ranging efficacy and safety phase, followed by a 40 week open label extension (OLE) phase (see FIG. 1). The study consists of three phases and an optional OLE phase. […] Clinically, CSU is characterized by the spontaneous and recurrent appearance of pruritic hives. The proposed primary endpoints were the UAS7 at Week 12 in EU and EU reference countries and the ISS7 in the US. Regardless of where a participant was from, all assessments were the same. The UAS7 score is a composite score containing both the HSS7 and the ISS7. This allowed a global assessment of the two key components of urticaria: hives and itch. […] The UAS is a validated PRO measure. […] The daily UAS scores range from 0 to 6 point/day. […] Patients were to complete the UAS using the e-diary. […] The following secondary endpoints were to be analyzed using the same approach as for the primary endpoint: • Change from baseline in UAS7 at Week 4 • Change from baseline in UAS7 at Week 12 (for US and US reference countries) • Change from baseline in ISS7 at Week 12 (except US and US reference countries) • Change from baseline in HSS7 at Week 12 The following responder secondary endpoints were to be analyzed using the Cochran-Mantel-Haenszel test adjusted by region: • Proportion of participants with UAS7<6 at Week 12 • Proportion of participants with UAS7=0 at Week 12 Participants who received selected prohibited medications and/or rescue medications were to be considered as non-responders for time points after the medication usage. For other participants, all available data including those collected during the off-treatment period were to be used to determine the responder/non-responder status. Missing data were to be considered as non-responders.

[1] = Age group (years) <44 (Median), 400 mg BID
[2] = Age group (years) <44 (Median), 400 mg QPM
[3] = Age group (years) <44 (Median), 400 mg TID
[4] = Age group (years) <65, 400 mg BID
[5] = Age group (years) <65, 400 mg QPM
[6] = Age group (years) <65, 400 mg TID
[7] = Age group (years) ≥44 (Median), 400 mg BID

Question: What does the source list for `CC(C)(C=C(C#N)C(=O)N1CCC[C@@H](n2nc(-c3ccc(Oc4ccccc4)cc3F)c3c(N)ncnc32)C1)N1CCN(C2COC2)CC1` [rilzabrutinib, (R)-2-[3-[4-amino-3-(2-fluoro-4-phenoxy-phenyl)pyrazolo[3,4-d]pyrimidin-1-yl]piperidine-1-carbonyl]-4-methyl-4-[4-(oxetan-3-yl)piperazin-1-yl]pent-2-enenitrile]?
Answer: UAS7 Post-baseline Mean (SD) (400 mg QPM, Week 3): 22.01 (9.00); UAS7 % Change difference for rilzabrutinib vs. placebo LS Mean (95% CI) (400 mg QPM, Week 4): −8.22%; UAS7 % Change from baseline LS Mean (SE) (400 mg QPM, Week 4): −28.63 (5.66) %; UAS7 Change difference for rilzabrutinib vs. placebo LS Mean (95% CI) (400 mg QPM, Week 4): −2.08; UAS7 Change from baseline LS Mean (SE) (400 mg QPM, Week 4): −9.14 (1.66); UAS7 Post-baseline Mean (SD) (400 mg QPM, Week 4): 21.92 (8.82); UAS7 Post-baseline Mean (SD) (400 mg QPM, Week 5): 20.63 (9.18); UAS7 Post-baseline Mean (SD) (400 mg QPM, Week 6): 20.21 (10.42); UAS7 Post-baseline Mean (SD) (400 mg QPM, Week 7): 21.11 (10.03); UAS7 Post-baseline Mean (SD) (400 mg QPM, Week 9): 20.25 (10.25); UAS7 Post-baseline Mean (SD) (400 mg QPM, Week 10): 20.27 (10.69); UAS7 Post-baseline Mean (SD) (400 mg QPM, Week 11): 21.17 (11.16); UAS7 % Change difference for rilzabrutinib vs. placebo LS Mean (95% CI) (400 mg QPM, Week 12): −4.51%; UAS7 % Change from baseline LS Mean (SE) (400 mg QPM, Week 12): −34.79 (6.80) %; UAS7 Change difference for rilzabrutinib vs. placebo LS Mean (95% CI) (400 mg QPM, Week 12): 0.40; UAS7 Change from baseline LS Mean (SE) (400 mg QPM, Week 12): −9.74 (2.00); UAS7 % Change difference for rilzabrutinib vs. placebo LS Mean (95% CI) (400 mg TID, Week 1): −27.13%; UAS7 % Change from baseline LS Mean (SE) (400 mg TID, Week 1): −36.60 (5.66) %; UAS7 Change difference for rilzabrutinib vs. placebo LS Mean (95% CI) (400 mg TID, Week 1): −7.89; UAS7 Change from baseline LS Mean (SE) (400 mg TID, Week 1): −11.44 (1.56); UAS7 Post-baseline Mean (SD) (400 mg TID, Week 1): 17.77 (10.26); UAS7 % Change difference for rilzabrutinib vs. placebo LS Mean (95% CI) (400 mg TID, Week 2): −27.13%; UAS7 % Change from baseline LS Mean (SE) (400 mg TID, Week 2): −44.90 (5.51) %; UAS7 Change difference for rilzabrutinib vs. placebo LS Mean (95% CI) (400 mg TID, Week 2): −7.73; UAS7 Change from baseline LS Mean (SE) (400 mg TID, Week 2): −13.63 (1.56); UAS7 Post-baseline Mean (SD) (400 mg TID, Week 2): 15.65 (10.66); UAS7 % Change difference for rilzabrutinib vs. placebo LS Mean (95% CI) (400 mg TID, Week 3): −27.19%; UAS7 % Change from baseline LS Mean (SE) (400 mg TID, Week 3): −47.14 (5.69) %; UAS7 Change difference for rilzabrutinib vs. placebo LS Mean (95% CI) (400 mg TID, Week 3): −6.90; UAS7 Change from baseline LS Mean (SE) (400 mg TID, Week 3): −13.83 (1.65); UAS7 Post-baseline Mean (SD) (400 mg TID, Week 3): 15.37 (9.87); UAS7 % Change difference for rilzabrutinib vs. placebo LS Mean (95% CI) (400 mg TID, Week 4): −26.33%; UAS7 % Change from baseline LS Mean (SE) (400 mg TID, Week 4): −46.75 (5.92) %; UAS7 Change difference for rilzabrutinib vs. placebo LS Mean (95% CI) (400 mg TID, Week 4): −6.60; UAS7 Change from baseline LS Mean (SE) (400 mg TID, Week 4): −13.66 (1.72); UAS7 Post-baseline Mean (SD) (400 mg TID, Week 4): 14.65 (9.61); UAS7 Change difference for rilzabrutinib vs. placebo LS Mean (95% CI) (400 mg TID, Week 5): −5.10; UAS7 Change from baseline LS Mean (SE) (400 mg TID, Week 5): −15.54 (1.72); UAS7 Post-baseline Mean (SD) (400 mg TID, Week 5): 13.41 (10.60); UAS7 Post-baseline Mean (SD) (400 mg TID, Week 6): 14.10 (11.23); UAS7 Post-baseline Mean (SD) (400 mg TID, Week 7): 13.54 (9.34); UAS7 Post-baseline Mean (SD) (400 mg TID, Week 8): 13.36 (9.81); UAS7 Post-baseline Mean (SD) (400 mg TID, Week 9): 12.57 (9.72); UAS7 Post-baseline Mean (SD) (400 mg TID, Week 10): 12.61 (9.89); UAS7 Post-baseline Mean (SD) (400 mg TID, Week 12): 11.00 (9.90); Change from Baseline in UAS7 at Week 12: LS Mean (SE) [1]: −13.80 (2.95); Change from Baseline in UAS7 at Week 12: LS Mean Diff vs. placebo (95% CI) [1]: −5.42 (−13.05, 2.21); Change from Baseline in UAS7 at Week 12: Mean (SD) [1]: −11.98 (9.69); Change from Baseline in UAS7 at Week 12: LS Mean (SE) [2]: −9.54 (2.74); Change from Baseline in UAS7 at Week 12: Mean (SD) [2]: −10.45 (10.67); Change from Baseline in UAS7 at Week 12: LS Mean (SE) [3]: −16.19 (3.68); Change from Baseline in UAS7 at Week 12: LS Mean Diff vs. placebo (95% CI) [3]: −7.80 (−16.46, 0.86); Change from Baseline in UAS7 at Week 12: Mean (SD) [3]: −18.69 (10.55); Change from Baseline in UAS7 at Week 12: LS Mean (SE) [4]: −13.99 (2.04); Change from Baseline in UAS7 at Week 12: LS Mean Diff vs. placebo (95% CI) [4]: −3.58 (−9.19, 2.03); Change from Baseline in UAS7 at Week 12: Mean (SD) [4]: −13.91 (11.95); Change from Baseline in UAS7 at Week 12: LS Mean (SE) [5]: −9.12 (1.96); Change from Baseline in UAS7 at Week 12: LS Mean Diff vs. placebo (95% CI) [5]: 1.30 (−4.27, 6.86); Change from Baseline in UAS7 at Week 12: Mean (SD) [5]: −10.37 (9.46); Change from Baseline in UAS7 at Week 12: LS Mean (SE) [6]: −16.30 (2.11); Change from Baseline in UAS7 at Week 12: LS Mean Diff vs. placebo (95% CI) [6]: −5.88 (−11.58, −0.19); Change from Baseline in UAS7 at Week 12: Mean (SD) [6]: −18.19 (11.00); Change from Baseline in UAS7 at Week 12: LS Mean (SE) [7]: −15.12 (2.72); Change from Baseline in UAS7 at Week 12: LS Mean Diff vs. placebo (95% CI) [7]: −3.56 (−11.91, 4.80); Change from Baseline in UAS7 at Week 12: Mean (SD) [7]: −16.63 (13.80); Change from Baseline in UAS7 at Week 12: LS Mean (SE) (Age group (years) ≥44 (Median), 400 mg QPM): −8.84 (2.81)
